In one assay the target is T1, MERTK (Homo sapiens, UniProt Q12866).
T1 sequence (Q12866 21-999): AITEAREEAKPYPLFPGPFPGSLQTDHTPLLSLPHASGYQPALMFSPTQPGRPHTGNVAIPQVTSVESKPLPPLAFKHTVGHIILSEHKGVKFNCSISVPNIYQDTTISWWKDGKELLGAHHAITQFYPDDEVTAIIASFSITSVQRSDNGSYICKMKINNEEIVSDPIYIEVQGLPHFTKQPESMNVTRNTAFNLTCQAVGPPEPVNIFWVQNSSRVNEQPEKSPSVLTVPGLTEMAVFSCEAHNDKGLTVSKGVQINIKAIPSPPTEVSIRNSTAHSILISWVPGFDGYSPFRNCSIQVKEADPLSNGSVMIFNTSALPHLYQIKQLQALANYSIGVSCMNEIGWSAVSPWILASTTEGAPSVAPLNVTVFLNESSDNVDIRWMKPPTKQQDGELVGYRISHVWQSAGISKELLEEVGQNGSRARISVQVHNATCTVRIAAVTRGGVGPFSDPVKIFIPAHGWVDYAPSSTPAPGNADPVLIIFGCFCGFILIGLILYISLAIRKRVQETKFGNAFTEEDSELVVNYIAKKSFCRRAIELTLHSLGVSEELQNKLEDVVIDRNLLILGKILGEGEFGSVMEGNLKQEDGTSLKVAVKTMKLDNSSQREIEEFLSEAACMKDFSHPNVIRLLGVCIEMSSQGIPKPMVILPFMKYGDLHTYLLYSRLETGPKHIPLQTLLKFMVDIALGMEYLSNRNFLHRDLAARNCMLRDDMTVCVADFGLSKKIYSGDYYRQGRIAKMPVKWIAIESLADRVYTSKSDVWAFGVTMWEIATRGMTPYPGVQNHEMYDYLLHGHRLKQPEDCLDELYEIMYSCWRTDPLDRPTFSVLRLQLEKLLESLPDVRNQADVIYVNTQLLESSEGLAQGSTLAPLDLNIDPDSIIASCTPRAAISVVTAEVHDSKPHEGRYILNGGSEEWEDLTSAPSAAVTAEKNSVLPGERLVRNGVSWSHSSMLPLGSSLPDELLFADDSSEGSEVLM
Briefly: TR-FRET kinase activity assay, MERTK. The class given is biochemical. To be noted: for IC50: TR-FRET activity assay, ATP at Km, 60 minutes, read-out: Mer IC50. In short, it runs like this: (§1)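 Each kinase phosphorylated a fluorescent-labelled tyrosine peptide in 50 mM HEPES pH 7.5, 10 mM MgCl2, 1 mM EGTA, 0.01% Brij 35, 1 mM DTT at RT, with ATP at Km for that enzyme. After 60 min, EDTA quench and Eu-anti-phosphotyrosine antibody (30 min, dark); IC50 from TR-FRET decrease.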
On the technique in general: In TR-FRET formats the signal depends on donor and acceptor labels being close together.

The target of a further assay is T2, TYRO3 (Homo sapiens, UniProt Q06418).
T2 sequence (Q06418 41-890): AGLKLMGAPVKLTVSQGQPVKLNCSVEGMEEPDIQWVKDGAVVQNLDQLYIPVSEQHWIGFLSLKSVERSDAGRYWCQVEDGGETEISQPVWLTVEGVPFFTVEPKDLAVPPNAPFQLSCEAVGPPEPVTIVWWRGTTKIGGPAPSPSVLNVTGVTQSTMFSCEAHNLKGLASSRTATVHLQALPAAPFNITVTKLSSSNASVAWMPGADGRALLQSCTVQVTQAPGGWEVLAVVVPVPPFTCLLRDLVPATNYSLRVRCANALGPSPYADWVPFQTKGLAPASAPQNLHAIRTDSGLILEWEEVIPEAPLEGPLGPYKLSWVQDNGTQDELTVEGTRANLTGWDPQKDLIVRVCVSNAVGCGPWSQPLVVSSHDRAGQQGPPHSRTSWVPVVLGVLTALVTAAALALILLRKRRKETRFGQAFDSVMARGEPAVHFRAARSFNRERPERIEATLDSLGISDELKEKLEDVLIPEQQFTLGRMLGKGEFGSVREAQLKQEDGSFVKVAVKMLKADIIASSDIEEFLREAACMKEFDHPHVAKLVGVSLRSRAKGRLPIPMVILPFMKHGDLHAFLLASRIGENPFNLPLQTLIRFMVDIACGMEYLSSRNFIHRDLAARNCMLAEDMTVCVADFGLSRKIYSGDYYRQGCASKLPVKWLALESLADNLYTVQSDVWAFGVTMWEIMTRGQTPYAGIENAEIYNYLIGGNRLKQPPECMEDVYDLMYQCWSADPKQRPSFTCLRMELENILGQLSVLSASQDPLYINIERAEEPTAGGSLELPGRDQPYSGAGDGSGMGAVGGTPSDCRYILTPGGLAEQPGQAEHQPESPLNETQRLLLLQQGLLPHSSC
As to the kind of experiment: TR-FRET kinase activity assay, TYRO3. The class given is biochemical. To be noted: ATP at Km, 60 minutes. In short, it runs like this: as §1

[1] abbreviates: ratio calculated as FLT3 IC50/Mer IC50.
Setting [2] is: ratio of Mer to FLT3: FLT3 IC50/Mer IC50.

The IC50 is the concentration needed to halve the response being measured. `COC[C@H](C)Nc1ncc2c(-c3ccnc(N4CCN(C(=O)OC5COC5)CC4)c3)cc([C@H]3CC[C@H](O)CC3)n2n1` [Compound 504]: the half-maximal inhibitory concentration (IC50) on MERTK and on TYRO3 was at most 0.1 µM in each case. Besides, the “FLT3/Mer ratio (FLT3 IC50/Mer IC50)” value at MERTK (setting [1]) was “+++ (“+++” represents a ratio of >100)”.

Consider `COC[C@H](C)Nc1ncc2c(-c3cnn(C[C@@H]4CCO4)c3)cc([C@H]3CC[C@H](O)CC3)n2n1` [Compound 474], for which the 50% inhibitory concentration (IC50) at MERTK and against TYRO3 was at most 0.1 µM throughout. Also, at MERTK (setting [1]), the “FLT3/Mer ratio (FLT3 IC50/Mer IC50)” value is recorded as “+++ (“+++” represents a ratio of >100)”.

With `COC[C@H](C)Nc1ncc2c(-c3ccnc(N4CCC5(CCO5)CC4)c3)cc([C@H]3CC[C@H](O)CC3)n2n1` [Compound 430], the concentration for half-maximal inhibition (IC50) at MERTK and against TYRO3 was at most 0.1 µM throughout. Also, the “FLT3/Mer ratio (FLT3 IC50/Mer IC50)” value on MERTK (setting [1]) is recorded as “+++ (“+++” represents a ratio of >100)”.

For `COC[C@H](C)Nc1ncc2c(-c3ccnc(N4Cc5nc(C)sc5C4)c3)cc([C@H]3CC[C@H](O)CC3)n2n1` [Compound 479, (trans)-4-(2-(((S)-1-methoxypropan-2-yl)amino)-5-(2-(2-methyl-4H-pyrrolo[3,4-d]thiazol-5(6H)-yl)pyridin-4-yl)pyrrolo[2,1-f][1,2,4]triazin-7-yl)cyclohexanol], the IC50 at MERTK and against TYRO3 was at most 0.1 µM in each case. For the same compound, the “FLT3/Mer ratio (FLT3 IC50/Mer IC50)” value on MERTK (setting [1]) was “+++ (“+++” represents a ratio of >100)”.

In the case of `COC[C@H](C)Nc1ncc2c(-c3csc(C(=O)N4CCOCC4)c3)cc([C@H]3CC[C@H](O)CC3)n2n1` [Compound 444], the IC50 on MERTK and against TYRO3 was at most 0.1 µM throughout. At MERTK (setting [1]), the “FLT3/Mer ratio (FLT3 IC50/Mer IC50)” value is “+++ (“+++” represents a ratio of >100)”.

On to `COC[C@H](C)Nc1ncc2c(-c3ccnc(N4CCN(C(=O)C5COC5)CC4)c3)cc([C@H]3CC[C@H](O)CC3)n2n1` [Compound 500], for which the IC50 at MERTK and against TYRO3 was at most 0.1 µM throughout. Further, at MERTK (setting [1]), the “FLT3/Mer ratio (FLT3 IC50/Mer IC50)” value is “+++ (“+++” represents a ratio of >100)”.

Regarding `COC[C@H](C)Nc1ncc2c(-c3cnn(C(C)(C)C(=O)N4CCN(C)CC4)c3)cc([C@H]3CC[C@H](O)CC3)n2n1` [Compound 466], the IC50 on MERTK and at TYRO3 was at most 0.1 µM throughout. For the same compound, the “FLT3/Mer ratio (FLT3 IC50/Mer IC50)” value on MERTK (setting [1]) was “+++ (“+++” represents a ratio of >100)”.

Take `COC[C@H](C)Nc1ncc2c(-c3ccc(-c4nn[nH]n4)cc3)cc([C@H]3CC[C@H](O)CC3)n2n1` [Compound 134]: the IC50 at MERTK and against TYRO3 was at most 0.1 µM each time. Besides, the “FLT3/Mer ratio (FLT3 IC50/Mer IC50)” value on MERTK (setting [2]) was “+++ (“+++” represents a ratio of >100)”.

For `C[C@@H](CC(F)(F)F)Nc1ncc2c(C3=CCNCC3)cc([C@H]3CC[C@H](O)CC3)n2n1` [Compound 442], the IC50 on MERTK and on TYRO3 was at most 0.1 µM each time. The “FLT3/Mer ratio (FLT3 IC50/Mer IC50)” value on MERTK (setting [1]) is “++ (“++” represents a ratio of between 10 and 100)”.

Take `COC[C@H](C)Nc1ncc2c(-c3ccnc(N4CCN(S(=O)(=O)C(F)(F)F)CC4)c3)cc([C@H]3CC[C@H](O)CC3)n2n1` [Compound 487]: the half-maximal inhibitory concentration (IC50) at MERTK and at TYRO3 was at most 0.1 µM in each case. For the same compound, the “FLT3/Mer ratio (FLT3 IC50/Mer IC50)” value at MERTK (setting [1]) is “+++ (“+++” represents a ratio of >100)”.

For `COC[C@H](C)Nc1ncc2c(-c3ccnc(N4CCN(S(=O)(=O)C5CC5)CC4)c3)cc([C@H]3CC[C@H](O)CC3)n2n1` [Compound 491], the IC50 on MERTK and at TYRO3 was at most 0.1 µM in each case. Moreover, the “FLT3/Mer ratio (FLT3 IC50/Mer IC50)” value at MERTK (setting [1]) is “+++ (“+++” represents a ratio of >100)”.

`C[C@@H](COC(F)F)Nc1ncc2c(-c3cnn(CCS(C)(=O)=O)c3)cc([C@H]3CC[C@H](O)CC3)n2n1` [Compound 436]: the IC50 at MERTK and against TYRO3 was at most 0.1 µM in each case. The “FLT3/Mer ratio (FLT3 IC50/Mer IC50)” value at MERTK (setting [1]) is “+++ (“+++” represents a ratio of >100)”.

`COC[C@H](C)Nc1ncc2c(C3=C[C@H]4CC[C@@H](C3)N4C(=O)N3CCOCC3)cc([C@H]3CC[C@H](O)CC3)n2n1` [Compound 469]: the half-maximal inhibitory concentration (IC50) on MERTK and against TYRO3 was at most 0.1 µM in each case. Further, the “FLT3/Mer ratio (FLT3 IC50/Mer IC50)” value on MERTK (setting [1]) is listed as “+++ (“+++” represents a ratio of >100)”.

Regarding `COC[C@H](C)Nc1ncc2c(-c3cnn(C(C)(C)C(=O)N4Cc5nc(C)sc5C4)c3)cc([C@H]3CC[C@H](O)CC3)n2n1` [Compound 495], the IC50 on MERTK and at TYRO3 was at most 0.1 µM each time. In addition, the “FLT3/Mer ratio (FLT3 IC50/Mer IC50)” value at MERTK (setting [1]) is “+++ (“+++” represents a ratio of >100)”.

`COC[C@H](C)Nc1ncc2c([C@H]3CC[C@@H](C(=O)N4CCOCC4)CC3)cc([C@H]3CC[C@H](O)CC3)n2n1` [Compound 484]: the IC50 on MERTK and at TYRO3 was at most 0.1 µM each time. In addition, the “FLT3/Mer ratio (FLT3 IC50/Mer IC50)” value at MERTK (setting [1]) was “+++ (“+++” represents a ratio of >100)”.

Consider `COC[C@H](C)Nc1ncc2c(-c3ccnc(F)c3)cc([C@H]3CC[C@H](O)CC3)n2n1` [Compound 505], for which the half-maximal inhibitory concentration (IC50) on MERTK and on TYRO3 was at most 0.1 µM throughout. For the same compound, on MERTK (setting [1]), the “FLT3/Mer ratio (FLT3 IC50/Mer IC50)” value is on record as “+++ (“+++” represents a ratio of >100)”.

For the compound `COC[C@H](C)Nc1ncc2c(-c3cnn(C[C@H]4CC(=O)N(C)C4)c3)cc([C@H]3CC[C@H](O)CC3)n2n1` [Compound 475], the IC50 on MERTK and against TYRO3 was at most 0.1 µM throughout. Moreover, the “FLT3/Mer ratio (FLT3 IC50/Mer IC50)” value at MERTK (setting [1]) is listed as “+++ (“+++” represents a ratio of >100)”.

Regarding `CC[C@H](C)Nc1ncc2c(C3=CCNCC3)cc([C@H]3CC[C@H](O)CC3)n2n1` [Compound 130], the IC50 on MERTK and against TYRO3 was at most 0.1 µM each time. The “FLT3/Mer ratio (FLT3 IC50/Mer IC50)” value at MERTK (setting [2]) is “+++ (“+++” represents a ratio of >100)”.

Take `CC[C@H](C)Nc1ncc2c(-c3ccc(CN4CCN(C)CC4)cc3)cc(C3CCC(C)(O)CC3)n2n1` (stereo in doubt) [Compound 131, (cis)-4-(2-((S)-sec-butylamino)-5-(4-((4-methylpiperazin-1-yl)methyl)phenyl)pyrrolo[2,1-f][1,2,4]triazin-7-yl)-1-methylcyclohexanol]: the IC50 on MERTK and at TYRO3 was at most 0.1 µM throughout. In addition, the “FLT3/Mer ratio (FLT3 IC50/Mer IC50)” value on MERTK (setting [2]) is “+++ (“+++” represents a ratio of >100)”.

As for `COC[C@H](C)Nc1ncc2c(-c3ccnc(N4CCc5nc(C)sc5C4)c3)cc([C@H]3CC[C@H](O)CC3)n2n1` [Compound 509], the concentration for half-maximal inhibition (IC50) at MERTK and on TYRO3 was at most 0.1 µM throughout. At MERTK (setting [1]), the “FLT3/Mer ratio (FLT3 IC50/Mer IC50)” value was “+++ (“+++” represents a ratio of >100)”.

Take `CC[C@H](C)Nc1ncc2c(-c3ccc(CN4CCN(C)CC4)cc3)cc([C@H]3CC[C@](C)(O)CC3)n2n1` (relative stereo) [Compound 132, (trans)-4-(2-((S)-sec-butylamino)-5-(4-((4-methylpiperazin-1-yl)methyl)phenyl)pyrrolo[2,1-f][1,2,4]triazin-7-yl)-1-methylcyclohexanol]: the IC50 at MERTK and against TYRO3 was at most 0.1 µM throughout. The “FLT3/Mer ratio (FLT3 IC50/Mer IC50)” value on MERTK (setting [2]) was “++ (“++” represents a ratio of between 10 and 100)”.

These data come from patent US11040981B2, “Pyrrolotriazine compounds and methods of inhibiting TAM kinases” (Syros Pharmaceuticals, Inc., priority 2017, dated 2021).
